Measurements as given in publication PMC12186257, “Serendipitous and Systematic Chemoproteomic Discovery of MBLAC2, HINT1, and NME1‑4 Inhibitors from Histone Deacetylase-Targeting Pharmacophores” (ACS Chemical Biology, 2025).

Columns and labels:
[1] = test system: compound-binding proteins such as HDACs, MBLAC2, ISOC1/2, ALDH2, and GATD3A; test: chemoproteomic competition assay, proteome-wide target binding profile; design: species or system human; details: dose-dependent competition
Method: MBLAC2 is a metalloenzyme predicted to harbor one or two Zn^2+ ions in its active site. […] In this assay, compounds of interest are incubated at increasing concentrations with a mixture of lysates of MV4–11 and SW620 cells. The compound-treated lysates are then mixed with bead-immobilized hydroxamic acid-containing compounds iA, iC, and iQ (immobilized Quisinostat), which pull down compound-binding proteins such as HDACs, MBLAC2, ISOC1/2, ALDH2, and GATD3A (Figure a) that can be identified and quantified by mass spectrometry (MS). Proteins targeted by the library compounds in a preincubation step are prevented from being pulled down by the immobilized probes, leading to a dose-dependent reduction in MS signal. Initially, 12 metal-chelating compounds were profiled at two concentrations (10 μM and 100 μM) (Figure S3).
Chemoproteomic competition assays
Sample preparation. For the MBLAC2 and HDAC inhibitor competition assay, the generation of affinity matrices, lysate generation, pulldown assay, and sample preparation were performed as described in detail in REF1. For the kinobeads assay, the generation of affinity matrices, lysate generation, pulldown assay, and sample preparation were performed as described in detail in REF2.
(§1) LC-MS/MS. The different sample types were measured with different LC-MS/MS settings. MBLAC2 2-dose competition assays were measured with the Lumos1 setup, MBLAC2 9-dose competition assays were measured with the Lumos2 setup, and kinobeads assays were measured with the Eclipse setup.
Peptides were analyzed via LC–MS/MS on a Dionex Ultimate3000 nano HPLC coupled to either one of two Orbitrap Fusion Lumos mass spectrometers, or to an Orbitrap Eclipse mass spectrometer, operated via the Thermo Scientific Xcalibur software.
In the all setups, peptides were loaded on a trap column (100 μm × 2 cm, packed in-house with Reprosil-Gold C18 ODS-3 5 μm resin, Dr. Maisch, Ammerbuch) and washed with 5 μL/min solvent A (0.1% formic acid in HPLC grade water) for 10 min. Peptides were then separated on an analytical column (75 μm × 40 cm, packed in-house with Reprosil-Gold C18 3μm resin, Dr. Maisch, Ammerbuch) using a 50 min gradient ranging from 4 to 32% solvent B (0.1% formic acid, 5% DMSO in acetonitrile) in solvent A (0.1% formic acid, 5% DMSO in HPLC grade water) at a flow rate of 300 nL/min.
The mass spectrometers were operated in data-dependent mode, automatically switching between MS1 and MS2 spectra. MS1 spectra were acquired over a mass-to-charge (m/z) range of 360–1300 m/z at a resolution of 60,000 (at m/z 200) in the Orbitrap using a maximum injection time of 50 ms and an automatic gain control (AGC) target value of 4e5.
In Lumos settings, up to 12 peptide precursors were isolated in (isolation width of 1.2 Th for Lumos1 and 1.7 for Lumos2, maximum injection time of 75 ms, AGC value of 1e5 for Lumos1 and 2e5 for Lumos2), fragmented by HCD using 30% normalized collision energy (NCE) and analyzed in the Orbitrap at a resolution of 15,000 (Lumos2) or 30,000 (Lumos1). The dynamic exclusion duration of fragmented precursor ions was set to 20 s (Lumos1) or 30 s (Lumos2). In Eclipse measurements, a cycle time of 2 s was chosen. Peptides were isolated in the quadrupole with an isolation offset of 1.2 (isolation width of 1.2 Th, maximum injection time of 54 ms, AGC target of 200%) and fragmented by […]

[2] = molecular target: T1, PDE1C (Homo sapiens, UniProt Q14123); test: Kinobead competition assay; details: dose-dependent binding; read-out: affinity PDE1C
T1 construct: endogenous in cells
From the text: The binding of KV-24 and KV-30 to the nucleotide-binding pocket raises the question of whether these compounds also target other nucleotide-binding proteins, such as kinases. To evaluate potential off-target effects, we performed Kinobead competition assays. This chemoproteomic approach is conceptually very similar to the one used here in that broad spectrum kinase inhibitors are immobilized on beads. […] PDE1C is a cAMP/cGMP nucleotide-binding protein that features two divalent metal cation cofactors. The hydroxamic acid moiety of KV-24 might chelate these metal cofactors, supporting the hypothesis that KV-24 binds the active site of PDE1C. […] With the help of our chemoproteomic platform, future structure–activity relationship (SAR) libraries based on the KV-24 and KV-30 scaffolds may be explored to improve selectivity toward either HINT1, kinase targets, or PDE1C. […]
as §1
Peptides were analyzed via LC–MS/MS on a Dionex Ultimate3000 nano HPLC coupled to either one of two Orbitrap Fusion Lumos mass spectrometers, or to an Orbitrap Eclipse mass spectrometer, operated via the Thermo Scientific Xcalibur software. […]

T1 sequence (Q14123 whole entry): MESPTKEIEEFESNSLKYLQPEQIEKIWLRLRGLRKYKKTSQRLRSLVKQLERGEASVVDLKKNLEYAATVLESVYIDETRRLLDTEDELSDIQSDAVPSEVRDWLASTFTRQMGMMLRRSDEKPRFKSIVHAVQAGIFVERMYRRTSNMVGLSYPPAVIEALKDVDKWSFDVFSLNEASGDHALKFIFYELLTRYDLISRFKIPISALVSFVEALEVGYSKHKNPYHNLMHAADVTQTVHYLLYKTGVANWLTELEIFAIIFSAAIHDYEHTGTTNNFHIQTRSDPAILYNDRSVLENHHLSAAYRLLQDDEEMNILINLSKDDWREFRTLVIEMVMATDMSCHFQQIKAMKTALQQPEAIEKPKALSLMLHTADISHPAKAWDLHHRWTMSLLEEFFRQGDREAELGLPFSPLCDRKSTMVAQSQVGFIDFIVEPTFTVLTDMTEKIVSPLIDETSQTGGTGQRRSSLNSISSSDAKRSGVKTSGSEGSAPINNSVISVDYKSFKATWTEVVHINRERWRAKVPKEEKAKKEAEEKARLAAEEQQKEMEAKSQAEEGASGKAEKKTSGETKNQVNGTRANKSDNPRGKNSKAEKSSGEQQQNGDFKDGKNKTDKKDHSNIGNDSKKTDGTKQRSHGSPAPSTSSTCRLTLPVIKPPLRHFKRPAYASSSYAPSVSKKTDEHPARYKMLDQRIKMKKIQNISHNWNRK

## O=C(NO)c1ccc(-c2nc3ccccc3n3cccc23)cc1 [KV-24]
[1]
  targets / off-targets bound: bound to HINT1 and NME4
[2]
  Kd: ~2 µM

## O=C(NO)c1ccc(-c2nc3ccccc3c3ccccc23)cc1 [KV-30]
[1]
  targets / off-targets bound: bound to HINT1 and NME4
